Columns and labels:
Glutamate NMDA receptor [1] = test: Compound was evaluated in vitro in a cortical-wedge preparation for the antagonism of N-methyl-D-aspartate-induced responses; format: functional
Rattus norvegicus = test: Tested for antagonism of NMDA induced convulsions in neonatal rats (ip) and minimum effective dose (MED) was reported; format: functional; conditions: read-out: MED
Mus musculus = test: Tested for antagonism of NMDA induced lethality in neonatal mice (ip) and minimum effective dose (MED) was reported; format: functional; conditions: read-out: MED
Glutamate NMDA receptor [2] = test: In vitro binding affinity against N-methyl-D-aspartate glutamate receptor using [3H]CGS-19,755 ligand; format: protein-complex assay

Compound | IC50 (Glutamate NMDA receptor [1]) [µM] | minimal effective dose (Rattus norvegicus) [mg/kg] | minimal effective dose (Mus musculus) [mg/kg] | IC50 (Glutamate NMDA receptor [2]) [µM]
O=C(O)[C@H]1C[C@@H](Cc2nnn[nH]2)CCN1 | 4.2 | 20 | 5 | 
O=C(O)[C@@H]1C[C@H](CCc2nn[nH]n2)CCN1 | 8.1 | 100 | 20 | 2.28
O=C(O)[C@@H]1C[C@H](CCCCc2nn[nH]n2)CCN1 |  |  | > 160 | > 10
O=C(O)[C@@H]1C[C@H](CCCc2nn[nH]n2)CCN1 | 12.4 | 100 | 10 | 
O=C(O)[C@H]1C[C@H](Cc2nn[nH]n2)CCN1 | 35.2 |  | 80 | 0.777
CN1CC[C@H](Cc2nn[nH]n2)C[C@@H]1C(=O)O |  |  | > 160 | > 10
O=C(O)[C@@H]1C[C@H](CP(=O)(O)O)CCN1 [SELFOTEL] | 1.7 | 5 | 1.25 | 

From ChEMBL document CHEMBL1125760, “4-(Tetrazolylalkyl)piperidine-2-carboxylic acids. Potent and selective N-methyl-D-aspartic acid receptor antagonists with a short duration of action” (J Med Chem, 1991)
